# From ChEMBL document CHEMBL1201862, “PubChem BioAssay data set” (2004)
# The source made the active and inactive calls.
# Tests used:
# Troponin, cardiac muscle = Troponin, cardiac muscle (Homo sapiens, UniProt P19429+P45379+P63316); assay: Fluorescence-based biochemical high throughput dose response assay for activators of the calcium sensitivity of cardiac Regulated Thin Filaments (RTF). [Related pubchem assays (depositor defined):AID493008, AID493018, AID504382, AID504383]; type: protein-complex assay
# [1] = target: T1, Alkaline phosphatase, tissue-nonspecific isozyme (Homo sapiens, UniProt P05186); assay: potency against alkaline phosphatase TNAP – biochemical, luminescent, dose response, SAR follow-up (AID 1056)
# T1 sequence (P05186 whole entry): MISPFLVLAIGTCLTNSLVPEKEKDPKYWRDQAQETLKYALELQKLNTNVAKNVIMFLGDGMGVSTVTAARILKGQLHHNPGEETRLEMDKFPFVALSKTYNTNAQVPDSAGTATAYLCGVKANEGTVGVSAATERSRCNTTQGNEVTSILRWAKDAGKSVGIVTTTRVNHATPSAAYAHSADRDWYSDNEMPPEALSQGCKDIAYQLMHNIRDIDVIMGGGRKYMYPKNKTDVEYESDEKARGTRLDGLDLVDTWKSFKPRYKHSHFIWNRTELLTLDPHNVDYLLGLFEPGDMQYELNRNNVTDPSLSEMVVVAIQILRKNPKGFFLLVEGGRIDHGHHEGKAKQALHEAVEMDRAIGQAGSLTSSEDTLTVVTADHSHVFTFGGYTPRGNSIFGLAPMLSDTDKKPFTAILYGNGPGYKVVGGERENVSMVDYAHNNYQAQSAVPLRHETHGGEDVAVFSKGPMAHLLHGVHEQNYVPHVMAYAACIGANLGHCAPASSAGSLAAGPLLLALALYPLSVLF
# [2] = target: Glyceraldehyde-3-phosphate dehydrogenase (Homo sapiens, UniProt P04406)
# Chain of Glyceraldehyde-3-phosphate dehydrogenase (P04406 whole entry): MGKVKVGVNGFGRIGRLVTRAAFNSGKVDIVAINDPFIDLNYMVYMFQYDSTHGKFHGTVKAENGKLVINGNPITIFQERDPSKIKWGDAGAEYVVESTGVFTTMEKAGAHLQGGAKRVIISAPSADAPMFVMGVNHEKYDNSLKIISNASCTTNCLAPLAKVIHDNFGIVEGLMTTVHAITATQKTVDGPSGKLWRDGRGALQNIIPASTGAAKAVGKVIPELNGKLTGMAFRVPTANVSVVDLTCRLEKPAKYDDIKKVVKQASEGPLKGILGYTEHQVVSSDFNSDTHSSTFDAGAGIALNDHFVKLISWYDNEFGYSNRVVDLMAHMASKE
# [3] = target: Alkaline phosphatase, placental type (Homo sapiens, UniProt P05187); assay: human placental alkaline phosphatase inhibition – biochemical, luminescence, confirmation (AID 1512); type: functional
# Chain of Alkaline phosphatase, placental type (P05187 whole entry): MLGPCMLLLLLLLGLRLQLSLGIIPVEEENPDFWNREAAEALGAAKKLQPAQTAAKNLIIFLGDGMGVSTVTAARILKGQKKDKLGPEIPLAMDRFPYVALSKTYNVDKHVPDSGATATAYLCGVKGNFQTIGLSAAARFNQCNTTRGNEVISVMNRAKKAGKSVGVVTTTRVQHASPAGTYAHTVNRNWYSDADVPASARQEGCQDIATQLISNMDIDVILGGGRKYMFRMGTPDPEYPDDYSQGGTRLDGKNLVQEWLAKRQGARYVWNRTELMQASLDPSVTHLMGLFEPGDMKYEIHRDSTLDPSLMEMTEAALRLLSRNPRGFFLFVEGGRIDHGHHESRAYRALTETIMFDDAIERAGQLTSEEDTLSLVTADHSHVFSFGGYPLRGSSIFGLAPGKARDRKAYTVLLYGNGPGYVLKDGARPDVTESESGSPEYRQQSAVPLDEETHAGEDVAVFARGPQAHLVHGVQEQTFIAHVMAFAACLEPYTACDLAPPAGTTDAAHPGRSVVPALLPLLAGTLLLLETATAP
# [4] = target: T2, G-protein coupled receptor 55 (Homo sapiens, UniProt Q9Y2T6); assay: inhibition of LPI-stimulated GPR55 beta-arrestin translocation – imaging, U2OS, beta-arrestin-GFP, LPI agonist, primary screen (AID 2013); type: functional;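 further: antagonist potency measured as reduced agonist-driven arrestin aggregation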
# T2 sequence (Q9Y2T6 whole entry): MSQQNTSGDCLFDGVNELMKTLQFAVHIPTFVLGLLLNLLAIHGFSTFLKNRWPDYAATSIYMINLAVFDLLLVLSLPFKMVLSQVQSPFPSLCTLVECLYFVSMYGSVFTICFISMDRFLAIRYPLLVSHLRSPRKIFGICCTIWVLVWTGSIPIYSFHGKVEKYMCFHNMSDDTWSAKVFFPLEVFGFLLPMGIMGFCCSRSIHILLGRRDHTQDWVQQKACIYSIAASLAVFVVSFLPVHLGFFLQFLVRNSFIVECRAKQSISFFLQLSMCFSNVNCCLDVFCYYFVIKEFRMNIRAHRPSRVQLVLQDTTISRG
# [5] = target: T3, DNA dC->dU-editing enzyme APOBEC-3G (Homo sapiens, UniProt Q9HC16); type: functional
# T3 sequence (Q9HC16 whole entry): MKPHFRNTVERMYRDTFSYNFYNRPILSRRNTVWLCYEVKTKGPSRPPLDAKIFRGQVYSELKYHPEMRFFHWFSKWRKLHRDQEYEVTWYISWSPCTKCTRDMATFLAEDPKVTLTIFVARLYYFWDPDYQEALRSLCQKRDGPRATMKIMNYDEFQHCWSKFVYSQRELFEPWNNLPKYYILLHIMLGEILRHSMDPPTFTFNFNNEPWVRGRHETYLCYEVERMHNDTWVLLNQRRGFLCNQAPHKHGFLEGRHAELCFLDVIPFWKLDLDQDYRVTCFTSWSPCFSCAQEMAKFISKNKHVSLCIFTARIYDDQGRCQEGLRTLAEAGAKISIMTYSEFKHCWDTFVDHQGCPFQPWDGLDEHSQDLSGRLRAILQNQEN
# [6] = target: T4, DNA dC->dU-editing enzyme APOBEC-3A (Homo sapiens, UniProt P31941); assay: Dose Response confirmation of small molecule APOBEC3A DNA Deaminase Inhibitors via a fluorescence-based single-stranded DNA deaminase assay. [Related pubchem assays (depositor defined):AID493011, AID493024]; type: functional
# T4 sequence (P31941 whole entry): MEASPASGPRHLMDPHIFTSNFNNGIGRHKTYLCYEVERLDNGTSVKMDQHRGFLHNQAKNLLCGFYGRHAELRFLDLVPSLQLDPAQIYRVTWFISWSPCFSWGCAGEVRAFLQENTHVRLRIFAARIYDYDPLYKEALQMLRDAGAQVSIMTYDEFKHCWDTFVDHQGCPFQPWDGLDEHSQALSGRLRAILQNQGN
# [7] = target: T3, DNA dC->dU-editing enzyme APOBEC-3G; assay: Dose Response confirmation of small molecule APOBEC3G DNA Deaminase Inhibitors via a fluorescence-based single-stranded DNA deaminase assay. [Related pubchem assays (depositor defined):AID493012, AID493028]; type: functional
# [8] = target: T4, DNA dC->dU-editing enzyme APOBEC-3A; assay: A3A deaminase inhibition for selectivity – biochemical, dose response (AID 504722); type: functional
# [9] = target: T5, Rac GTPase-activating protein 1 (Homo sapiens, UniProt Q9H0H5); assay: blockers of MgcRacGAP-driven Rac1 GTP hydrolysis – biochemical, ADP Hunter fluorescence, primary and confirmatory, confirmation (AID 624330); type: functional
# T5 sequence (Q9H0H5 whole entry): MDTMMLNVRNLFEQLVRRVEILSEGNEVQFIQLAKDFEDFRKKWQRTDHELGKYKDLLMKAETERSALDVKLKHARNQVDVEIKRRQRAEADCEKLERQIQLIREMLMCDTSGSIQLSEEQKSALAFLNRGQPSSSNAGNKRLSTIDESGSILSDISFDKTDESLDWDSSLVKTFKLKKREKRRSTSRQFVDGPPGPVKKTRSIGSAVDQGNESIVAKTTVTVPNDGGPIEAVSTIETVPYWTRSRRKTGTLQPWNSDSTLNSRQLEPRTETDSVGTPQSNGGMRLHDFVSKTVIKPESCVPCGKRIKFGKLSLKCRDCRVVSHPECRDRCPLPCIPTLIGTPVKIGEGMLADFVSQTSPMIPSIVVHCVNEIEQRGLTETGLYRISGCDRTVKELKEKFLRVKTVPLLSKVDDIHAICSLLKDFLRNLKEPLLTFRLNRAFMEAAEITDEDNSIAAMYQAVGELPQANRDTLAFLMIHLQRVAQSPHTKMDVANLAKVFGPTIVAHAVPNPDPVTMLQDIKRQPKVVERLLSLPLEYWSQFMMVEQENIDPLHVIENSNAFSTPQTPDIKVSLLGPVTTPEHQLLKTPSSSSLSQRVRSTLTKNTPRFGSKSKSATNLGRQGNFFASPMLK
# [10] = target: FAD-linked sulfhydryl oxidase ALR (Homo sapiens, UniProt P55789); assay: ALR-catalysed DTT oxidation blockers – biochemical, H2O2 detection, luminescence, cherry-pick, dose response (AID 493248)
# Chain of FAD-linked sulfhydryl oxidase ALR (P55789 whole entry): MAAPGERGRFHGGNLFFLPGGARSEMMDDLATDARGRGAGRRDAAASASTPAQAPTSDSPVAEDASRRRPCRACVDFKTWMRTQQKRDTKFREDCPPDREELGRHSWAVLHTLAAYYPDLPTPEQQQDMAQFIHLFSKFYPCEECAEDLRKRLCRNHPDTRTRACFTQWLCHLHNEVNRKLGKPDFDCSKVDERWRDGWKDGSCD
# [11] = target: T2, G-protein coupled receptor 55; assay: selective activators of receptor GPR55 – imaging, U2OS cells, beta-arrestin-GFP redistribution, primary screen (AID 1961); type: functional
# [12] = target: Glucose-6-phosphate 1-dehydrogenase (Homo sapiens, UniProt P11413); assay: inhibition of Homo sapiens G6PD, dose series – biochemical, fluorescence, selectivity assay for P. falciparum G6PD inhibitor project, dose response (AID 504792); type: functional
# Chain of Glucose-6-phosphate 1-dehydrogenase (P11413 whole entry, the tested form may be a part): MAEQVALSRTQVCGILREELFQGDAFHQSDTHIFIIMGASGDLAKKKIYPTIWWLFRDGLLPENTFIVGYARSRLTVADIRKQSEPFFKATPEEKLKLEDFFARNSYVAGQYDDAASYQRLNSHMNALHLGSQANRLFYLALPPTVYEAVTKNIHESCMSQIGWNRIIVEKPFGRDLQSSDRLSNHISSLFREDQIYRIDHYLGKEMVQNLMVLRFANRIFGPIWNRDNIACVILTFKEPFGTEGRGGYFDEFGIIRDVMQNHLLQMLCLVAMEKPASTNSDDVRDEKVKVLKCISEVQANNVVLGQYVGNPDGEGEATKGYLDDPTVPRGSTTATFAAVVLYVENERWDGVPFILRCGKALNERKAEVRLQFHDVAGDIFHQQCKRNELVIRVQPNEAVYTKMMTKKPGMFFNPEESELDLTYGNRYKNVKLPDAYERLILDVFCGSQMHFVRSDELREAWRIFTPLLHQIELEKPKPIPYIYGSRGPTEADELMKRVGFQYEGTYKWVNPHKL
# [13] = target: T6, Carboxy-terminal domain RNA polymerase II polypeptide A small phosphatase 1 (Homo sapiens, UniProt Q9GZU7); assay: CTDSP1 inhibitors, concentration-response, biochemical, absorbance readout, ultra-high-throughput screen actives (AID 540297); type: functional
# T6 sequence (Q9GZU7 whole entry): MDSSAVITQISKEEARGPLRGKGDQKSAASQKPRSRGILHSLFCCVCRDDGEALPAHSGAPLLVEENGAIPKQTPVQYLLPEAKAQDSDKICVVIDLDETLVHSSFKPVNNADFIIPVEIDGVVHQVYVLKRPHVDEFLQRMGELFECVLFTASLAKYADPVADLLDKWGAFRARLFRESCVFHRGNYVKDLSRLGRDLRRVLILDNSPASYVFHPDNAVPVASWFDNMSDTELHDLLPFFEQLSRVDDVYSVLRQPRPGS
# Caspase-6 = target: T7, Caspase-6 (Homo sapiens, UniProt P55212); assay: inhibition of CASP6 peptide cleavage – biochemical, VEID-R110 fluorescence, cherry-pick, dose response (AID 720632)
# T7 sequence (P55212 whole entry): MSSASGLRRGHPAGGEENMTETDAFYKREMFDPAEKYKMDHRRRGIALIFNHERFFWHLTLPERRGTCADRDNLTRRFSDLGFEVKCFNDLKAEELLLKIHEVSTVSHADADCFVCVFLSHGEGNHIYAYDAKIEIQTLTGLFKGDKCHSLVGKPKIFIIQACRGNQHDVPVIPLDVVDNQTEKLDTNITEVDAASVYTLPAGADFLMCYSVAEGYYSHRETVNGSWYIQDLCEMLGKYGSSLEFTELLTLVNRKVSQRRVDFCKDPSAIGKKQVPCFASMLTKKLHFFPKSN
# [14] = microbe, parasite or virus in culture; type: functional; conditions: Mycobacterium tuberculosis
compound,measurement,setting,value
O=C(CO/N=C/c1ccccc1OC(F)F)NCc1cccs1,EC50,"Troponin, cardiac muscle",> 71.5 µM (inactive)
O=C1c2ccccc2C(=O)N1c1nncs1,IC50,[1],> 100 µM (inactive)
same,IC50,[2],> 100 µM (not active)
Cc1ccc(C)c(NC(=S)NC(NC(=O)Cc2cccc3ccccc23)C(Cl)(Cl)Cl)c1 (stereo not drawn),IC50,[1],> 100 µM (inactive)
same,IC50,[3],11.5 µM (active)
COc1ccc(C23CC4CC(CC(C4)C2)C3)cc1C(=O)NCCN(C)C,IC50,[4],1.37 µM (active)
COc1ccc(/C=N/NC(=O)c2cc(C34CC5CC(CC(C5)C3)C4)[nH]n2)cc1OC,IC50,[4],2.74 µM (active)
COc1ccc(-c2c(-c3ccc(OCC(=O)NN)cc3O)n[nH]c2C(F)(F)F)cc1,IC50,[4],2.75 µM (active)
COC(=O)C1=C(C)N(Cc2ccccc2)C(NCc2ccc(OC)cc2)=N[C@H]1c1ccccc1,IC50,[5],10.8 µM (active)
same,IC50,[6],5.01 µM (active)
O=C(NNC(=S)NC(=O)c1ccccc1[N+](=O)[O-])c1ccccc1[N+](=O)[O-],IC50,[3],> 100 µM (inactive)
Cc1ccc(/C=N/n2c(S)nnc2-c2cccnc2)s1,IC50,[7],2 µM (active)
same,IC50,[8],> 100 µM (inactive)
same,IC50,[9],53.9 µM (active)
same,AC50,[10],2.34 µM (active)
N#CC1=C(S)N(c2ccccc2)C(c2ccc(-c3cc(Cl)ccc3Cl)o2)NC1=O (stereo not drawn),EC50,[11],> 32 µM (inactive)
Cc1ccc(NC(=O)Cn2sc3nc(C)cc(C)c3c2=O)c(Cl)c1,IC50,[7],4.88 µM (active)
same,IC50,[8],> 100 µM (inactive)
same,IC50,[12],30.5 µM (inactive)
O=C(/C=C/c1cn(CC(O)CN2CCCCC2)c2ccccc12)c1cccs1 (stereo not drawn),EC50,"Troponin, cardiac muscle",17.9 µM (inactive)
O=C1C2C(C(=O)N1/N=C/c1cc([N+](=O)[O-])c(O)cc1O)C1C=CC2C12CC2 (stereo not drawn),IC50,[13],4.9 µM (active)
same,IC50,[5],40.2 µM (active)
same,IC50,[6],11.3 µM (active)
same,AC50,Caspase-6,3.41 µM (active)
COc1ccc(-c2csc3nc(-c4ccccc4OC)oc(=O)c23)cc1,CC50,[14],30.8 µM (active)
same,EC50,[11],25 µM (inactive)
O=C(O)c1cc(NS(=O)(=O)c2ccc(NC3CCCCC3)c([N+](=O)[O-])c2)cc(C(=O)O)c1,IC50,[4],5.62 µM (active)
Sc1nc(-c2ccc(Cl)cc2Cl)n[nH]1,IC50,[1],> 100 µM (inactive)
same,IC50,[3],> 100 µM (inactive)
same,IC50,[2],> 100 µM (not active)
Cc1c2ccccc2cc(Cc2ccccc2)[n+]1C,IC50,[5],2.98 µM (active)
same,IC50,[6],3.64 µM (active)
COC(=O)C1=C(C)N(CC2CC2)C(=NCCN2CCOCC2)N[C@H]1c1ccccc1,IC50,[5],4.91 µM (active)
same,IC50,[6],5.16 µM (active)
CC1(C)CC(=O)c2c(-c3ccc(F)cc3)n[nH]c2C1,IC50,[1],5.95 µM (active)
same,IC50,[3],> 100 µM (inactive)
same,IC50,[2],> 100 µM (not active)
COc1ccc(SC[C@H](CC(C)C)N2CCN(CCc3ccccc3)CCC2=O)cc1,EC50,[11],10.8 µM (inactive)
